Experimental data from patent US11465980B2, “6-membered aza-heterocyclic containing delta-opioid receptor modulating compounds, methods of using and making the same” (Trevena, Inc., priority 2015, dated 2022).

Tests used:
adult male C57 mice = test: Tail suspension test (TST); type: in vivo, mouse; conditions: route sc, po; p < 0.05 compared to vehicle-treated mice
Description: The experiments were performed using adult male C57 mice (6-10 weeks of age, 20-30 g, Hilltop Lab, PA). The mice were housed in standard rodent cages with stainless steel mesh wire bar lids in groups of 4 with controlled temperature and light cycle (6:00 a.m.-6:00 p.m.). Animals were given free access to food (Harlan Teklad Global 18% protein (Madison, Wis.)) and water during a minimum 2-day habituation period to the laboratory. Animals that were used in the study were handled, housed, and sacrificed (using compressed CO2) in accord with the current NIH guidelines regarding the use and care of laboratory animals, and all applicable local, state, and federal regulations and guidelines. Animals are identified by cage number, and by markings applied to the proximal tip of the tail using a permanent marker. Group sizes (n=8, and therefore 30-50 animals per study) provide reliable estimates of treatment effects, and this species and strain of mouse has been recognized as appropriate for pharmacology studies.
To measure efficacy of the compounds the compounds were tested using a tail suspension test. The tail suspension test is a behavioral test used to evaluate the efficacy of antidepressant drugs in rodents. In the TST, mice (n=8/group) were suspended by the tail with tape approximately 30-50 cm above the lab bench. Mice are positioned such that the base of their tail is perpendicular to the lab bench. Each mouse is given 1 trial that last 6 minutes. The total duration of immobility is calculated as the percentage of time that the mouse is immobile. The duration of immobility is the main parameter measured. This is calculated from the cumulated time during which the animals is absent of initiated movements including passive swaying. When antidepressant drugs are administered, immobility is decreased by a variety of classes of antidepressant drugs. One or more of the compounds show antidepressant activity.

mouse [1] = test: Tactile allodynia produced by intraplantar Freund's Complete Adjuvant, von Frey (mouse); type: in vivo; conditions: route sc, p < 0.05 vs vehicle
Description: (§1) Animals were acclimated to the vivarium for at least 48 hr prior to behavioral testing. Inflammation was induced for both rodent species with the administration of an intraplantar (subcutaneous injection into the plantar surface of the hind paw, i.pl.) injection of 0.10 ml Freund's Complete Adjuvant (FCA).
For mouse studies, the experiments were conducted 48 hours after FCA administration. Tactile allodynia was measured using a series of von Frey monofilaments. These filaments are bendable, plastic and intended to poke, not penetrate, the skin. Animals were placed in a Plexiglas chamber (approximately 10 cm×20 cm×25 cm) and allowed to habituate for 5-10 minutes. The chamber was positioned on top of a mesh screen so that von Frey monofilaments can be presented to the plantar surface of the hind paw that is inflamed. The measurement of tactile sensitivity for the injected hind paw is obtained using the up/down method (LaBuda and Little, 2005, J Neurosci. Methods, 144, 175) with […]. Each trial will start with a von Frey force of 0.6 grams delivered to the hind paw for approximately 1-2 seconds. If there was no withdrawal response, the next higher force was be delivered. If there was a response, the next lower force was delivered. This procedure was performed until no response was made at the highest force (2 grams) or until four stimuli are administered following the initial response. The 50% paw withdrawal threshold for the hind paw was be calculated using the following formula: [Xth]log=[vFi]log+ky where [vFr] is the force of the last von Frey used, k is the average interval (in log units) between the von Frey monofilaments, and y is a value that depends upon the pattern of withdrawal responses (Dixon, Annual Review Pharmacol Toxicol, 1980, 20, 441).

rat [2] = test: Mechanical allodynia after Freund's Complete Adjuvant, Randall-Selitto (rat); type: in vivo; conditions: route sc, p < 0.05 vs vehicle
Description: as §1
For rat studies, the experiments were conducted 24 hours after CFA administration. Rats are tested for mechanical allodynia in a Randall-Selitto apparatus. The inflamed paw is put on a pedestal and a pointed force of increasing intensity (0 to 250 grams) is applied to the paw. When the animal struggles to withdraw from the force the test is stopped and the force to induce that struggle is recorded. Data may be presented as mean grams of force to withdrawal or a percentage of the maximum possible effect.

rat [3] = test: Tactile allodynia produced by nitroglycerin (migraine model, rat); type: in vivo; conditions: route sc, po, nitroglycerin 10 mg/kg ip, p < 0.05 vs vehicle
mouse [4] = test: Tactile allodynia produced by nitroglycerin (migraine model, mouse); type: in vivo; conditions: route sc, nitroglycerin 10 mg/kg ip, p < 0.05 vs vehicle
Description: Compounds were tested for efficacy in rodent models of nitroglycerine induced migraine. In this model both rats and mice can be induced to have a behavioral response consistent with the progression of a migraine attack by the intraperitoneal injection of nitroglycerin. In this test mice or rats (n=8/group) are given an intraperitoneal injection of nitroglycerin at 10 mg/kg. After 90 minutes the animals are subcutaneously dosed with test compound. A measurement of mechanical allodynia will be obtained using the up/down method with seven von Frey monofilaments. There is a specific series used for rat and mouse. Each monofilament is delivered to the hind paw for approximately 1-2 seconds. If there is a response, the next lower force will be delivered. This procedure will be performed until no response was made at the highest force or until four stimuli are administered following the initial response. The 50% paw withdrawal threshold for the hind paw will be calculated using the following formula: [Xth]log=[vFr]log+ky where [vFr] is the force of the last von Frey used, k is the average interval (in log units) between the von Frey monofilaments, and y is a value that depends upon the pattern of withdrawal responses. Testing for tactile sensitivity will be performed and a withdrawal value will be assigned as the tactile sensitivity (expressed in grams of force required to elicit a response) for the injected paw for each animal. Data is presented as the mean grams required to produce a hind paw withdrawal from the von Frey stimulus. […] Compounds found to be effective in this model of migraine at the doses indicated, although other doses may also be active. Other compounds described herein were not necessarily tested, but are expected to be able have some level of efficacy.

male c57bl6J mice = test: Tactile allodynia produced by repeat dosing of test drug (induction of medication overuse headache); type: in vivo, mouse; conditions: daily for 11 days; B1049 10 mg/kg s.c., sumatriptan 0.6 mg/kg i.p.; FIG. 5
Description: Mice (25 male c57bl6J mice, n=4-5/group) were habituated for 2 days on testing rack prior to injections. Mice were treated with vehicle (VEH-VEH (saline), VEH-B1049 (10% BCD-saline)), sumatriptan (SUMA) (0.6 mg/kg, i.p.), SNC80 (10 mg/kg, i.p.), or B1049 (10 mg/kg, s.c.) daily for 11 days. Mechanical sensitivity was measured as the 50% withdrawal threshold to manual von Frey hair stimulation on days 1 and 11. On these days, mice were habituated to the rack for 15-20 min, following which baseline mechanical thresholds were determined prior to administration of drug or control. On day 1 following assessment of baseline mechanical threshold, mice were weighed and injected with drug or control and returned to home cage. The results are illustrated in FIG. 5.

COCCOc1cccc([C@@H]2CCN(CCn3cccc3)[C@H](C)[C@H]2COc2ccc3c(c2)C(=O)NC3)c1 (relative stereo) [Compound B1049, (−)-6-{[(trans, trans)-4-[3-(2-methoxyethoxy)phenyl]-2-methyl-1-[2-(1H-pyrrol-1-yl)ethyl]piperidin-3-yl]methoxy}-2,3-dihydro-1H-isoindol-1-one]
Active TST Dose (adult male C57 mice): ≤30 mg/kg
Active CFA Dose (mouse [1]): ≤10 mg/kg
Active CFA Dose (rat [2]): ≤10 mg/kg
Active Migraine Doses (rat [3]): ≤30 mg/kg
Active Migraine Doses (mouse [4]): ≤10 mg/kg
induction of medication overuse headache (tactile allodynia after repeat dosing) (male c57bl6J mice): does not induce medication overuse headache
